Data: patent publication US7199152B2, “TNF-α production inhibitor comprising kavalactone as an active ingredient” (Meiji Dairies Corporation, priority 2000, dated 2007)

Key:
[1] = tested on: TNF-α production in BALB/3T3 cells stimulated by okadaic acid; assay: Inhibition of TNF-α production (in vitro) in BALB/3T3 cells stimulated by okadaic acid, ELISA; type: cell-based; conditions: for TNF-α production relative to the TNF-α production of the control: okadaic acid 0.2 μM, 24 hours, control = 100%; for TNF-α production inhibitory effect, overall assessment (in words): BALB/3T3 cells, okadaic acid stimulation
Procedure: In response to stimulation by okadaic acid (9,10-deepithio-9,10-didehydroacanthifolicin), BALB/3T3 cells produce TNF-α. The compounds of the present invention were investigated in terms of inhibitory effect on TNF-α production.
An MEM medium (product of Nissui) containing 10% fetal calf serum (product of Biocell Laboratory) was injected into 12-well multiplates (product of Corning), and BALB/3T3 cells were disseminated at 2×10^5 cells/well. The cells were cultured in a carbon dioxide gas incubator (5% Co2, humidified, 37° C.). Subsequently, KAVA-1, KAVA-2, KAVA-3, KAVA-4, or KAVA-5 was added to the wells at a concentration shown in FIG. 1, and the cells were cultured for one hour. No KAVA compound was added to the control wells. After completion of culturing, okadaic acid (carcinogenisis promoter isolated from Halichondria okadai) was added to each well at a final concentration of 0.2 μM, and culturing was performed for 24 hours. After completion of this culturing, the TNF-α concentration of the supernatant of each well was measured by means of ELISA system (product of Genzyme). In FIG. 1, the amount of TNF-α release corresponding to each compound concentration is represented by a percent concentration based on the amount of TNF-α release measured for the control (100%).

[2] = tested on: TNF-α production in serum induced by LPS; assay: TNF-α inhibitory effect (in vivo), LPS-induced serum TNF-α in mice, ELISA; design: species or system BALB/c mice; conditions: 40 mg/kg intraperitoneally, LPS 50 μg/mouse i.p. immediately after, serum 90 minutes after LPS
Procedure: Male BALB/cAnNCrj mice of 6 weeks age were purchased from Japan Charles River, and those having body weights of 30 g or lower were tested.
Seven mice groups, each group consisting of six mice, were provided; i.e., 1) a group to which distilled water for injection was administered (non-treated group) (N); 2) a group to which a 0.3% carboxymethyl cellulose-Na (0.3% CMC-Na) suspension was administered (control group) (C); and 3) five groups to which KAVA-1, KAVA-2, KAVA-3, KAVA-4, and KAVA-5, respectively, were administered (0.3% CMC-Na was used as a solvent).
Each of KAVA-1, KAVA-2, KAVA-3, KAVA-4, and KAVA-5 was prepared to a drug liquid of 40 mg/10 ml. The liquid was intraperitoneally administered at 10 ml/kg (dose: 40 mg/kg), and 0.3% CMC-Na was intraperitoneally administered at 10 ml/kg to each corresponding group. Lipo-polysaccharide (LPS) (product of SIGMA) was dissolved in physiological saline, and the solution was intraperitoneally administered to each mouse in an amount of 0.2 ml (50 μg/mouse) immediately after administration of the drug liquid.
After 90 minutes from administration of LPS, blood was collected from the eye socket, and the collected sample was allowed to stand for one hour at room temperature. Subsequently, the sample was centrifuged at 11,000 rpm for five minutes, and the serum was collected. […]

| Compound | TNF-α production relative to the TNF-α production of the control ([1]; 10 μM compound) | TNF-α production relative to the TNF-α production of the control ([1]; 50 μM compound) | TNF-α production relative to the TNF-α production of the control ([1]; 100 μM compound) | TNF-α production inhibitory effect, overall assessment (in words) [1] | inhibitory effect on TNF-α production (in words) ([1]; concentrations of 50 μM or less) | inhibition of serum TNF-α production compared with the control group (C) (in words) [2] |
| --- | --- | --- | --- | --- | --- | --- |
| COc1cc(/C=C/c2ccccc2)oc(=O)c1 [KAVA-3, Desmethoxyyangonin] | approximately 60% | approximately 22% | approximately 0% | strong TNF-A production inhibitory effect | – | – |
| COC1=CC(=O)O[C@@H](CCc2ccccc2)C1 [KAVA-4, (+)-Dihydrokavain] | – | – | approximately 60% | – | no inhibitory effect | significantly (p<0.5) inhibited TNF-α production |
| COC1=CC(=O)O[C@@H](/C=C/c2ccccc2)C1 [KAVA-5, (+)-Kavain] | – | – | approximately 39% | – | – | – |
| COC1=CC(=O)O[C@@H](/C=C/c2ccc3c(c2)OCO3)C1 [KAVA-1, (+)-Methysticin] | – | – | approximately 39% | – | – | almost comparable to that exerted by KAVA-2 |
| COc1ccc(/C=C/c2cc(OC)cc(=O)o2)cc1 [KAVA-2, Yangonin] | – | – | approximately 22% | strong TNF-A production inhibitory effect | – | – |
